According to patent US12134617B1, “Pyrimido[1′6′:1,5]pyrazolo[4,3-c][1,7]naphthyridines as CK2 inhibitors” (KING FAISAL UNIVERSITY, priority 2024, dated 2024):

Tests used:
[1] = tested on: H1299 (lung); test: In vitro cytotoxic activity (MTT) assay, H1299; type: cell-based; conditions: Homo sapiens, NCI-H1299; H1299 cells, exposed for 96 hours, 50% inhibition of cell proliferation; read-out: Cytotoxicity activity IC50, H1299 (lung)
Experimental: (§1) In Vitro Cytotoxic Activity Assay
(§2) Compounds 1-16 were screened for their in vitro cytotoxic activity utilizing a 3-(4,5-dimethyl-thiazol-2-yl)-2,5-diphenyltetrazolium bromide (MTT) assay against selected cancer human cell lines consisting of PC3 (prostate), HCT116 (colon), A375 (melanoma), H1299 (lung), MIAPaCa-2 (pancreas), HL60 (leukemia), MCF7 (breast), MDA-MB-231 (breast) (T. Mosmann, J. Immunol. Meth., 1983, 65, 55-63). The cells were cultured at 37° C. in RMPI1640 medium supplemented with 10% fetal bovine serum, 50 IU/mL penicillin, and 50 μg/mL streptomycin in a 5% CO2 incubator. All cells were sub-cultured 3 times/week by trypsinisation. Viable cells were seeded and allowed to adhere for 12 hours before a test drug was added in 96-well plates at an initial density of 1.0×10^5 cells/mL. Tumor cell lines were separately exposed to various concentrations of the tested compounds followed by incubation at a temperature of 37° C. during 96 hours inside a medium of fresh RMPI 1640. Cells were subsequently incubated at 37° C. using MTT at 0.5 mg/mL during 4 hours. After removal of supernatant, formazan crystals were dissolved in isopropanol and the optical density was measured at 570 nm. CX-4945 was used as a positive control.

[2] = tested on: A375 (melanoma); test: In vitro cytotoxic activity (MTT) assay, A375; type: cell-based; conditions: Homo sapiens, A-375; A375 cells, exposed for 96 hours, 50% inhibition of cell proliferation; read-out: Cytotoxicity activity IC50, A375 (melanoma)
Experimental: as §1, §2

[3] = molecular target: T1, recombinant human CK2 (RRββ-holoenzyme) (Homo sapiens, UniProt P68400); test: CK2 Kinase Assay (33P-ATP, filter plate); type: biochemical; conditions: recombinant human CK2, final ATP concentration 15 μM, 10 min at 30° C.; read-out: protein kinase CK2 IC50
T1 construct: purchased Millipore
Experimental: Evaluation of Inhibitory Activity on Protein Kinase CK2
CK2 Kinase Assay was conducted using the protocol as described in Pierre F. et al; J. Med. Chem. 2011, 54, 635-654. The tested compounds in aqueous solution were added at a volume of 10 μL to a reaction mixture comprising 10 μL of assay dilution buffer (ADB; 20 mM MOPS, pH 7.2, 25 mM β-glycerol phosphate, 5 mM EGTA, 1 mM sodium orthovanadate, and 1 mM dithiothreitol), 10 μL of substrate peptide (RRRDDDSDDD, dissolved in ADB at a concentration of 1 mM), 10 μL of recombinant human CK2 (RRββ-holoenzyme, 25 ng dissolved in ADB; Millipore). Reactions were initiated by the addition of 10 μL of ATP solution (90% 75 mMMgCl2, 75 μM ATP (final ATP concentration: 15 μM) dissolved in ADB; 10% [γ-33P] ATP (stock 1mCi/100 μL; 3000 Ci/mmol (Perkin-Elmer) and maintained for 10 min at 30° C. The reactions were quenched with 100 μL of 0.75% phosphoric acid and then transferred to and filtered through a phosphor cellulose filter plate (Millipore). After washing each well five times with 0.75% phosphoric acid, the plate was dried under vacuum for 5 min and, following the addition of 15 μL of scintillation fluid to each well, the residual radioactivity was measured using a Wallac luminescence counter. The IC50 values were derived from eight concentrations of test inhibitors.

[4] = tested on: PC3 (prostate); test: In vitro cytotoxic activity (MTT) assay, PC3; type: cell-based; conditions: Homo sapiens, PC-3; PC3 cells, exposed for 96 hours, 50% inhibition of cell proliferation; read-out: Cytotoxicity activity IC50, PC3 (prostate)
Experimental: as §1, §2

[5] = tested on: MIAPaCa-2 (pancreas); test: In vitro cytotoxic activity (MTT) assay, MIAPaCa-2; type: cell-based; conditions: Homo sapiens, MIA PaCa-2; MIAPaCa-2 cells, exposed for 96 hours, 50% inhibition of cell proliferation; read-out: Cytotoxicity activity IC50, MIAPaCa-2 (pancreas)
Experimental: as §1, §2

[6] = tested on: HL60 (leukemia); test: In vitro cytotoxic activity (MTT) assay, HL60; type: cell-based; conditions: Homo sapiens, HL-60; HL60 cells, exposed for 96 hours, 50% inhibition of cell proliferation; read-out: Cytotoxicity activity IC50, HL60 (leukemia)
Experimental: as §1, §2

[7] = tested on: MCF7 (breast); test: In vitro cytotoxic activity (MTT) assay, MCF7; type: cell-based; conditions: Homo sapiens; MCF7 cells, exposed for 96 hours, 50% inhibition of cell proliferation; read-out: Cytotoxicity activity IC50, MCF7 (breast)
Experimental: as §1, §2

[8] = tested on: HCT116 (colon); test: In vitro cytotoxic activity (MTT) assay, HCT116; type: cell-based; conditions: Homo sapiens, HCT-116; HCT116 cells, exposed for 96 hours, 50% inhibition of cell proliferation; read-out: Cytotoxicity activity IC50, HCT116 (colon)
Experimental: as §1, §2

[9] = tested on: MDA-MB-231 (breast); test: In vitro cytotoxic activity (MTT) assay, MDA-MB-231; type: cell-based; conditions: Homo sapiens; MDA-MB-231 cells, exposed for 96 hours, 50% inhibition of cell proliferation; read-out: Cytotoxicity activity IC50, MDA-MB-231 (breast)
Experimental: as §1, §2

T1 sequence (P68400 whole entry): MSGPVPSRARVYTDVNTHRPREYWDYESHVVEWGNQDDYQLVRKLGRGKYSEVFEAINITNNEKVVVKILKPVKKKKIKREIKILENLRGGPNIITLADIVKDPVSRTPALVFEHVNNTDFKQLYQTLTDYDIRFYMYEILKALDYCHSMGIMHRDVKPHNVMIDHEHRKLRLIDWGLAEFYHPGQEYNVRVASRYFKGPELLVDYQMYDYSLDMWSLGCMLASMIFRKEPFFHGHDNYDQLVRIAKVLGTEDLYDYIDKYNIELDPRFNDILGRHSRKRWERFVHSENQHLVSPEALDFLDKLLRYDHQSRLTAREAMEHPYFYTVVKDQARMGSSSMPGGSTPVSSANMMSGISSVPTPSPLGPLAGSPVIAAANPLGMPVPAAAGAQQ
T1 sequence (P67870 whole entry partner): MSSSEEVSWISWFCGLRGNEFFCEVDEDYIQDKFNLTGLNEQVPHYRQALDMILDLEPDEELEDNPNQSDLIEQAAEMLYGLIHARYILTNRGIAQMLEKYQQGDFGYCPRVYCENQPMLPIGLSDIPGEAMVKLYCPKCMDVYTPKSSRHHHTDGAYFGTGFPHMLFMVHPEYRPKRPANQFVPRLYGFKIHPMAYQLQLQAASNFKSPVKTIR

Clc1cccc(Nc2nc3cnccc3c3nn4cnccc4c23)c1 [Compound 1, N-(3-chlorophenyl)pyrimido[1′,6′:1,5]pyrazolo[4,3-c][1,7]naphthyridin-6-amine]
IC50 [1]: 2.6 µM
IC50 [2]: 3.2 µM
IC50 [3]: 0.047 µM
IC50 [4]: 1.7 µM
IC50 [5]: 1.3 µM
IC50 [6]: 4.4 µM
IC50 [7]: 5.7 µM
IC50 [8]: 1.5 µM
IC50 [9]: 4.8 µM
